We go through 44 compounds from patent US20110245284A1, “Alkoxy- and Alkylthio-Substituted Anilinopyrimidines” (Bayer CropScience AG, priority 2008, published 2011).

One may read the chromatographic logP as a lipophilicity value derived from retention on a column. Low readings indicate a more hydrophilic compound, high ones a more lipophilic compound.

Series [1] in a line: logP by HPLC on reversed-phase columns (C 18), method [a], acidic range pH 2.3. Format: physicochemical. Here is the method:
(§1) The logP values were determined in accordance with EEC Directive 79/831 Annex V.A8 by HPLC (High Performance Liquid Chromatography) on reversed-phase columns (C 18), using the methods below:
[a] The determination is carried out in the acidic range at pH 2.3 using the mobile phases 0.1% aqueous phosphoric acid and acetonitrile, linear gradient from 10% acetonitrile to 95% acetonitrile.

A short description of series [2]: logP by LC-MS on reversed-phase columns (C 18), method [c], neutral range pH 7.8. Format: physicochemical. The note with it: pH 7.8. Here is the method:
as §1
[c] The LC-MS determination in the neutral range is carried out at pH 7.8 using the mobile phases 0.001 molar aqueous ammonium bicarbonate solution and acetonitrile, linear gradient from 10% acetonitrile to 95% acetonitrile.

Series [3] is described as follows: logP by LC-MS on reversed-phase columns (C 18), method [b], acidic range pH 2.7. The following applies: pH 2.7, log p. In kind it is physicochemical. As for the experimental part:
as §1
[b] The LC-MS determination in the acidic range is carried out at pH 2.7 using the mobile phases 0.1% aqueous formic acid and acetonitrile (contains 0.1% formic acid), linear gradient from 10% acetonitrile to 95% acetonitrile.

In a further series the test system is Leptosphaeria nodorum. Put plainly: Leptosphaeria nodorum test (wheat) / protective. In kind it is in vivo. The note with it: Parastagonospora nodorum, active compound concentration 500 ppm, evaluation 7-9 days after inoculation, read-out: efficacy. Here is the method: Thereafter, the plants are placed in a greenhouse at 90% relative atmospheric humidity and a temperature of 22° C.

For another series, the system named is Sphaerotheca fuliginea. As to the kind of experiment: Sphaerotheca test (cucumber) / protective. In kind it is in vivo. The note with it: Podosphaera fuliginea, 168 h, active compound concentration 500 ppm, evaluation 7 days after inoculation, read-out: efficacy. Here is the method: The plants are subsequently placed in a greenhouse at 70% relative atmospheric humidity and a temperature of 23° C.

Regarding `CSc1cccc(Nc2ncc(C(F)(F)F)c(Cl)n2)c1` [Xa-11, 4-Chloro-N-[3-(methylsulphanyl)phenyl]-5-(trifluoromethyl)pyrimidin-2-amine], the chromatographic logP in series [1] (pH 2.3, logP (pH2.3)) was found to be 4.11. Still for that read-out and setting: to `CC(O)c1cccc(Nc2ncc(Br)c(NC3CC3)n2)c1` (stereo not drawn) [Ic-IV-2, 1-(3 -{[5-Bromo-4-(cyclopropylamino)pyrimidin-2-yl]amino}phenyl)ethanol] belongs 1.31. For the compound `COCCCOC(C)c1cccc(Nc2ncc(Cl)c(NC3CC3)n2)c1` (stereo not drawn) [Example 256, 5-Chloro-N4-cyclopropyl-N2-{3-[1-(3-methoxypropoxy)ethyl]phenyl}pyrimidine-2,4-diamine], the chromatographic logP in series [2] worked out at 3.62; in series [3], 2.2; in series [1] (pH 2.3, logP (pH2.3)), 2.2.

The compound `CCSC(CC)c1cccc([N+](=O)[O-])c1` (stereo not drawn) [VIc-I-3, 1-[1-(Ethylsulphanyl)propyl]-3-nitrobenzene] displayed a chromatographic logP in series [1] (pH 2.3, logP (pH2.3)) of 3.96.

For the compound `COCC(O)c1cccc(N)c1` (stereo not drawn) [IVc-I-5, 1-(3-Aminophenyl)-2-methoxyethanol], the chromatographic logP in series [1] (pH 2.3, logP (pH2.3)) was found to be 0.51.

`COC(C)c1cccc(Nc2ncc(Br)c(Cl)n2)c1` (stereo not drawn) [Xa-13, 5-Bromo-4-chloro-N-[3-(1-methoxyethyl)phenyl]pyrimidin-2-amine] showed a chromatographic logP in series [1] (pH 2.3, logP (pH2.3)) of 3.09. Consider `COCc1cccc(Nc2ncc(Cl)c(N(C)C(C)C)n2)c1` [Example 29], for which the pest or weed control at 500 ppm with Leptosphaeria nodorum is at least 70%. For the same compound, the chromatographic logP in series [2] was 4; in series [1] (pH 2.3, log p) it was 2.56. `CCC(SC)c1cccc(N)c1` (stereo not drawn) [IVc-I-1, 3-[1-(Methylsulphanyl)propyl]aniline] came in with a chromatographic logP in series [1] (pH 2.3, logP (pH2.3)) of 1.49.

For `CSC(C)c1cccc(Nc2ncc(C(F)(F)F)c(Cl)n2)c1` (stereo not drawn) [Xa-8, 4-Chloro-N-{3-[1-(methylsulphanyl)ethyl]phenyl}-5-(trifluoromethyl)pyrimidin-2-amine], in series [1] (pH 2.3, logP (pH2.3)), the chromatographic logP was determined as 4.5.

In series [1] (pH 2.3, logP (pH2.3)), `CC(O)c1cccc(Nc2ncc(C(F)(F)F)c(NC3CC3)n2)c1` (stereo not drawn) [Ic-IV-3, 1-(3 -{[4-(Cyclopropylamino)-5-(trifluoromethyl)pyrimidin-2-yl]amino}phenyl)ethanol] came in with a chromatographic logP of 2.01. Same read-out and setting: the figure for `CC(O)c1cccc(Nc2ncc(C(F)(F)F)c(Cl)n2)c1` (stereo not drawn) [Xa-15, 1-(3-{[4-Chloro-5-(trifluoromethyl)pyrimidin-2-yl]amino}phenyl)ethanol] is 2.81. For `COCc1cccc(Nc2ncc(Cl)c(NC3CC(C)C3)n2)c1` (stereo not drawn) [Example 198], the pest or weed control at 500 ppm with Sphaerotheca fuliginea and in the series on Leptosphaeria nodorum was at least 70% in each case. The chromatographic logP in series [1] (pH 2.3, log p) is 4.04. `CC(C)CCSc1cccc(Nc2ncc(Cl)c(Cl)n2)c1` [Xa-4, 4,5 -Dichloro-N-{3-[(3-methylbutyl)sulphanyl]phenyl}pyrimidin-2-amine]: the chromatographic logP in series [1] (pH 2.3, logP (pH2.3)) was 4.98. With `FC(F)(F)c1cnc(Cl)nc1NC1CC1` [Example V-21, 2-Chloro-N-cyclopropyl-5-(trifluoromethyl)pyrimidin-4-amine], the chromatographic logP in series [1] (pH 2.3, logP (pH2.3)) came to 2.38.

Take `CC[S+]([O-])C(C)c1cccc(Nc2ncc(C(F)(F)F)c(NC3CCC3)n2)c1` (stereo not drawn) [Example 43, N^4-Cyclobutyl-N^2-{3-[1-(ethylsulphinyl)ethyl]phenyl}-5-(trifluoromethyl)pyrimidine-2,4-diamine]: the pest or weed control at 500 ppm in the series with Sphaerotheca fuliginea and with Leptosphaeria nodorum was at least 70% each time. Further, the chromatographic logP in series [3] stood at 2.55; in series [1] (pH 2.3, logP (pH2.3)), 2.55. `CC(C)CCSc1cccc(Nc2ncc(C(F)(F)F)c(Cl)n2)c1` [Xa-3, 4-Chloro-N-{3-[(3-methylbutyl)sulphanyl]phenyl}-5-(trifluoromethyl)pyrimidin-2-amine]: the chromatographic logP in series [1] (pH 2.3, logP (pH2.3)) came to 5.79. On the same count and under the same terms, the figure for `Clc1ncc(Cl)c(NC2CC2)n1` [Example V-4, 2,5-Dichloro-N-cyclopropylpyrimidin-4-amine] is 1.77. On to `COCc1cccc(Nc2ncc(F)c(NC3CCC3)n2)c1` [Example 8], for which the pest or weed control at 500 ppm in the series on Sphaerotheca fuliginea and in the series on Leptosphaeria nodorum was at least 70% throughout. For the same compound, the chromatographic logP was found to be 2.95 in series [2] and 1.5 in series [1] (pH 2.3, log p).

Regarding `COCCOC(c1cccc(N)c1)C(F)(F)F` (stereo not drawn) [IVc-I-6, 3-[2,2,2-Trifluoro-1-(2-methoxyethoxy)ethyl]aniline], in series [1] (pH 2.3, logP (pH2.3)), the chromatographic logP came out at 1.64. On the same count and under the same terms, the figure for `CC(C)CSc1cccc(Nc2ncc(C(F)(F)F)c(Cl)n2)c1` [Xa-7, 4-Chloro-N-{3-[(2-methylpropyl)sulphanyl]phenyl}-5-(trifluoromethyl)pyrimidin-2-amine] is 5.4. On the same count and under the same terms, the figure for `CCSC(C)c1cccc(Nc2ncc(C(F)(F)F)c(Cl)n2)c1` (stereo not drawn) [Xa-12, 4-Chloro-N-{3-[1-(ethylsulphanyl)ethyl]phenyl}-5-(trifluoromethyl)pyrimidin-2-amine] is 4.9. On to `COCc1cccc(Nc2ncc(Cl)c(NCCCN3CCCCCC3=O)n2)c1` [Example 52], for which, in series [1] (pH 2.3), the log p is 1.67[a]. In series [1] (pH 2.3, logP (pH2.3)), `CCCS(=O)(=O)c1cccc(Nc2ncc(C(F)(F)F)c(Cl)n2)c1` [Xc-1, 4-chloro-N-[3-(propylsulphonyl)phenyl]-5-(trifluoromethyl)pyrimidin-2-amine] registered a chromatographic logP of 3.29. The same measure, in the same setting: the figure for `CC(O)c1cccc(Nc2ncc(Cl)c(Cl)n2)c1` (stereo not drawn) [Xa-14, 1-{3-[(4,5-Dichloropyrimidin-2-yl)amino]phenyl}ethanol] is 1.98.

With `COCc1cccc(Nc2ncc(Cl)c(NCC#N)n2)c1` [Example 51], the chromatographic logP was determined as 2.09 in series [2] and 1.68 in series [1] (pH 2.3, log p).

`COCc1cccc(Nc2ncc(Cl)c(NC(C)(C)C(C)=O)n2)c1` [Example 9]: in series [1] (pH 2.3), the log p is 1.99[a]. As for `COCC(O)c1cccc(N)c1` (stereo not drawn) [IVc-I-7, 1-(3-Aminophenyl)-2-methoxyethanol], the “logP (pH2.3)” value in series [1] (pH 2.3) came out at 0.73. In turn, `CCC(Cl)c1cccc([N+](=O)[O-])c1` (stereo not drawn) [VIIa-1, 1-(1-Chloropropyl)-3-nitrobenzene] had a chromatographic logP in series [1] (pH 2.3, logP (pH2.3)) of 3.31. Still for that read-out and setting: the figure for `CCCSc1cccc(Nc2ncc(C(F)(F)F)c(Cl)n2)c1` [Xa-1, 4-Chloro-N-[3-(propylsulphanyl)phenyl]-5-(trifluoromethyl)pyrimidin-2-amine] is 4.99. Take `Clc1ncc(I)c(NC2CCC2)n1` [Example V-3, 2-Chloro-N-cyclobutyl-5-iodine-pyrimidin-4-amine]: the “logP (pH2.3)” value in series [1] (pH 2.3, HPLC reversed-phase C 18) turned out to be 3.08. In series [1] (pH 2.3, logP (pH2.3)), `COCC(O)c1cccc([N+](=O)[O-])c1` (stereo not drawn) [2-methoxy-1-(3-nitrophenyl)ethanol, 2-Methoxy-1-(3-nitrophenyl)ethanol] returned a chromatographic logP of 1.35.

In series [1] (pH 2.3, logP (pH2.3)), `CSC(C)c1cccc([N+](=O)[O-])c1` (stereo not drawn) [VIc-I-2, 1-[1-(Methylsulphanyl)ethyl]-3-nitrobenzene] registered a chromatographic logP of 3.06. Still for that read-out and setting: the figure for `CCSC(CC)c1cccc(N)c1` (stereo not drawn) [IVc-I-3, 3-[1-(Ethylsulphanyl)propyl]aniline] is 1.94; for `CC(C)Sc1cccc(Nc2ncc(C(F)(F)F)c(Cl)n2)c1` [Xa-2, 4-Chloro-N-[3-(propan-2-ylsulphanyl)phenyl]-5-(trifluoromethyl)pyrimidin-2-amine] it is 4.93. Still for that read-out and setting: the figure for `FC(F)(F)c1cnc(Cl)nc1NCC1CC1` [Example V-22, 2-Chloro-N-(cyclopropylmethyl)-5-(trifluoromethyl)pyrimidin-4-amine] is 2.98; for `CCCSc1cccc(Nc2ncc(Cl)c(Cl)n2)c1` [Xa-5, 4,5-Dichloro-N-[3-(propylsulphanyl)phenyl]pyrimidin-2-amine] it is 4.1. Same read-out and setting: to `CCSC(C)c1cccc(N)c1` (stereo not drawn) [IVc-I-4, 3-[1-(Ethylsulphanyl)ethyl]aniline] belongs 1.46; to `CCC(SC)c1cccc([N+](=O)[O-])c1` (stereo not drawn) [VIc-I-1, 1-[1-(Methylsulphanyl)propyl]-3-nitrobenzene], 3.51. With `COC(C)c1cccc(Nc2ncc(C(F)(F)F)c(Cl)n2)c1` (stereo not drawn) [Xa-9, 4-Chloro-N-[3-(1-methoxyethyl)phenyl]-5-(trifluoromethyl)pyrimidin-2-amine], the chromatographic logP in series [1] (pH 2.3, logP (pH2.3)) was found to be 3.89. In the case of `CSC(C)c1cccc(N)c1` (stereo not drawn) [IVc-I-2], the “logP (pH2.3)” value in series [1] (pH 2.3) came to 1.03. On to `CCS(=O)(=O)C(C)c1cccc(Nc2ncc(C(F)(F)F)c(NC3CCC3)n2)c1` (stereo not drawn) [Example 40, N^4-cyclobutyl-N^2-{3-[1-(ethylsulphonyl)ethyl]phenyl}-5-(trifluoromethyl)pyrimidine-2,4-diamine], for which the pest or weed control at 500 ppm in the series with Sphaerotheca fuliginea and with Leptosphaeria nodorum was at least 70% throughout. The chromatographic logP in series [3] was 2.89; in series [1] (pH 2.3, logP (pH2.3)) it was 2.89. In the case of `CCSC(C)c1cccc([N+](=O)[O-])c1` (stereo not drawn) [VIc-I-4, 1-[1-(Ethylsulphanyl)ethyl]-3-nitrobenzene], the chromatographic logP in series [1] (pH 2.3, logP (pH2.3)) came to 3.48. The same measure, in the same setting: the figure for `Clc1ncc(Br)c(NC2CCC2)n1` [Example V-2, 5-Bromo-2-chloro-N-cyclobutylpyrimidin-4-amine] is 2.86; for `CC(C)Sc1cccc(Nc2ncc(Cl)c(Cl)n2)c1` [Xa-6, 4,5-Dichloro-N-[3-(propan-2-ylsulphanyl)phenyl]pyrimidin-2-amine] it is 4.04.
